Source: patent EP0760375A1, “ANTITUMOR INDOLOPYPROLOCARBAZOLE DERIVATIVE” (BANYU PHARMACEUTICAL CO., LTD., priority 1994, dated 1995)
Where two headings read alike, the source gives them in different places.

Columns and labels:
[1] = test system: human gastric cancer cells (MKN-45); test: Growth-inhibiting activity (CTX) against cancer cells, Thiazoyl Blue assay; assay type: cell-based; conditions: MKN-45 cells, 72 hours incubation with test compound, absorbance at 560 nm
Method: (§1) 50 µl of a cell culture medium (RPMI-1640 medium containing 10% bovine fetal serum) containing 1 x 10^3 mouse leukemia cells (P388), human gastric cancer cells (MKN-45), human pulmonary cancer cells (PC-13) or human rectal cancer cells (DLD-1) was pipetted into the wells of a 96-well microplate, and incubated at 37°C under 5% CO2 for 24 hours. Then, 50 µl of a test solution containing each test compound was added, and the culture medium was further incubated at 37°C under 5% CO2 for 72 hours. After 10 µl of 0.5% Thiazoyl Blue was added to the culture medium, an enzyme reaction was carried out by incubating the culture medium at 37°C under 5% CO2 for 2 hours. After the reaction was stopped by the addition of 20% sodium dodecyl sulfate (SDS), the culture medium was further incubated at 37°C for 16 hours to dissolve the pigment so formed. Then, the absorbances at 560 nm were measured and compared with that obtained in a control group. The compound of the formula [drawing 7] was used as the control compound.

[2] = test system: human pulmonary cancer cells (PC-13); test: as above; assay type: cell-based; conditions: PC-13 cells, 72 hours incubation with test compound, absorbance at 560 nm
Method: as §1

[3] = test system: human rectal cancer cells (DLD-1); test: as above; assay type: cell-based; conditions: DLD-1 cells, 72 hours incubation with test compound, absorbance at 560 nm
Method: as §1

[4] = test system: mouse leukemia cells (P388); test: as above; assay type: cell-based; conditions: 72 hours incubation with test compound, absorbance at 560 nm
Method: as §1

[5] = test system: human gastric cancer MKN-45; test: Effect on human gastric cancer MKN-45 solid tumor transplanted under the skin of mice; assay type: in vivo; conditions: Mus musculus, MKN-45, iv, total dose at which tumor growth was inhibited by 75%, injection into the caudal vein, read-out: GID75 (mg/kg total)
Method: A MKN-45 solid tumor which had previously been grown by transplantation under the skin of a nude mouse was minced, and 3 mm cubes of the tumor were transplanted under the skin of mice used for this test. Starting from the time when the transplanted tumor grew to 0.3 cm^3, a treatment was carried out by injecting a dose of each test drug into the caudal vein of the mice, once a day, for 5 consecutive days and, after two days' pause, injecting the test drug for 5 days (treatment schedule: 5/w x 2) or four times at intervals of 3 or 4 days (treatment schedule: 2/w x 2). Twenty or thirty-two days after the start of the treatment, the larger diameter (L) and smaller diameter (W) of the tumor were measured, and its volume (V) was determined ( […] [formula] ). The degree of tumor growth inhibition was calculated from this volume, and the total dose at which the tumor growth was inhibited by 75% (GID75, mg/kg) was determined.

| IC50 [1] [µM] | IC50 [2] [µM] | IC50 [3] [µM] | IC50 [4] [µM] | SMILES | ED75 ([5]; treatment schedule 5/w x 2) [mg/kg] | ED75 ([5]; treatment schedule 2/w x 2) [mg/kg] |
| --- | --- | --- | --- | --- | --- | --- |
| 0.29 | 0.34 | 0.67 | 0.037 | O=C1c2c(c3c4cccc(O)c4n([C@@H]4O[C@H](CO)[C@@H](O)[C@H](O)[C@H]4O)c3c3[nH]c4c(O)cccc4c23)C(=O)N1NC(CO)CO [Compound [I-A]] | 27 |  |
| 0.5 | 1.4 | 73 | 0.12 | O=CNN1C(=O)c2c(c3c4cccc(O)c4n([C@@H]4O[C@H](CO)[C@@H](O)[C@H](O)[C@H]4O)c3c3[nH]c4c(O)cccc4c23)C1=O [Control compound, reference compound] | 170 |  |

| SMILES | IC50 [1] [µM] | IC50 [2] [µM] | IC50 [3] [µM] | IC50 [4] [µM] | ED75 ([5]; treatment schedule 5/w x 2) [mg/kg] | ED75 ([5]; treatment schedule 2/w x 2) [mg/kg] |
| --- | --- | --- | --- | --- | --- | --- |
| O=C1c2c(c3c4ccc(O)cc4n([C@@H]4O[C@H](CO)[C@@H](O)[C@H](O)[C@H]4O)c3c3[nH]c4cc(O)ccc4c23)C(=O)N1NC(CO)CO [Compound [I-B]] | 0.011 | 0.035 | 0.1 | 0.002 |  | 3 |
